Where two headings read alike, the source gives them in different places.

Assay [1] addresses T1, CCK-B receptors (Cavia porcellus, UniProt H0VZC5).
T1 construct: Cerebral cortices were removed from Hartley-strain guinea pigs, the cerebral cortices were homogenized; from tissue; host or cells: cerebral cortex of Hartley-strain guinea pigs, crude membrane pellet
T1 sequence (H0VZC5 1-426): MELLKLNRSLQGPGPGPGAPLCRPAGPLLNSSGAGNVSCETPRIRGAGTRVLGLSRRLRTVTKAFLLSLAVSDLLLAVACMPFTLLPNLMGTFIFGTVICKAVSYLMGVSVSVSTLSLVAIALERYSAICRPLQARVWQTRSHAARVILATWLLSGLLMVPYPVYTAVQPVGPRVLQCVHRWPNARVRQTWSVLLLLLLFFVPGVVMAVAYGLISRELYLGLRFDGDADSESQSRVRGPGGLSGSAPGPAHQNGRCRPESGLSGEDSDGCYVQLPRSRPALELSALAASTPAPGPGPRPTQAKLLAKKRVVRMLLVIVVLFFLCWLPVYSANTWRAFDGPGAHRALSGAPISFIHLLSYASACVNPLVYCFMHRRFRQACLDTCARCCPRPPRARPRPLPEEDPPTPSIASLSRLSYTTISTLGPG
As to the kind of experiment: Measurement of Binding Affinity for CCK-B Receptors. Further details: species or system Hartley-strain guinea pig. To be noted: inhibition of specific [3H]CCK-8 (1.0 nM) binding; guinea pig cerebral cortex; 25° C., 2 hours; pH 6.5; read-out: Ki (CCK-B receptors).
Experimental: Cerebral cortices were removed from Hartley-strain guinea pigs, the cerebral cortices were homogenized in 50 volumes of 50 mM Tris-HCl buffer (pH7.4) and centrifuged at 50000×g for 10 minutes. The Tris-HCl buffer was added to the pellet and recentrifuged as above two times. The final pellet was rehomogenized in 10 mM HEPES buffer (pH 6.5, which hereinafter be abbreviated as "solvent") containing 5 mM MgCl2, 1 mM EGTA, 0.25 mg/ml bacitracin and 130 mM NaCl, and used as the receptor preparation.
Binding assay was measured as follows. Fifty μl of [^3 H]CCK-8 (at the final concentration of 1.0 nM) and 900 μl of the receptor preparation (800 μg protein/tube) were added to 50 μl of either solvent, CCK-8 (1 μM) or a test compound. These ware reacted at 25° C. for 2 hours. After the reaction, the mixture was filtrated through Whatman GF/B filter presoaked in 0.1% BSA. The filter was washed with 3 ml of ice-cold 50 mM Tris-HCl buffer (pH 7.4) four times, immediately after the filtration. The filter was soaked in the ACS-II scintillation cocktail for a day and radioactivity was measured using a liquid scintillation counter. Non-specific binding was defined as the radioactivity in the presence of 1 μM CCK-8. Specific binding was defined as the difference between total binding (used solvent without CCK-8) and non-specific binding. Inhibitor dissociation constant (Ki) of each test compound was determined from the inhibition of specific [^3 H]CCK-8 binding.

Assay [2] concerns pentagastrin-stimulated acid secretion. Briefly: Measurement of Inhibition of Pentagastrin-stimulated Acid Secretion. The assay is classed as in vivo, male Sprague-Dawley (SD)-strain rats. To be noted: intraduodenal; for inhibition in vivo at 10 mg/kg: read-out: % Inhibition of acid output. As to the method: Male Sprague-Dawley (SD)-strain rats were used. Each rat was operated to ligate the pylorus, and equip with a duodenal catheter and gastric fistula under a ether anesthesia. After the operation, each rat was placed in a Bollman-type cage and continuously infused pentagastrin (15 μg/kg/hr) through the tail vein. Test compounds were suspended in 0.5% aqueous sodium carboxymethylcellulose (which hereinafter be abbreviated as "vehicle"). Vehicle or test compound was administered through the intraduodenal catheter 1 hour after the beginning of pentagastrin infusion. Acidity of the collected gastric juice was measured by an automatic titillation device. Acid output was determined by multiplying the volume by the acidity of gastric juice. […] [formula]

Assay [3] addresses T2, CCK-A receptors (Cavia porcellus, UniProt Q63931).
T2 construct: Pancreases were removed from Hartley-strain guinea pigs, the pancreases were homogenized; from tissue; host or cells: pancreas of Hartley-strain guinea pigs, crude membrane pellet
T2 sequence (Q63931 1-430): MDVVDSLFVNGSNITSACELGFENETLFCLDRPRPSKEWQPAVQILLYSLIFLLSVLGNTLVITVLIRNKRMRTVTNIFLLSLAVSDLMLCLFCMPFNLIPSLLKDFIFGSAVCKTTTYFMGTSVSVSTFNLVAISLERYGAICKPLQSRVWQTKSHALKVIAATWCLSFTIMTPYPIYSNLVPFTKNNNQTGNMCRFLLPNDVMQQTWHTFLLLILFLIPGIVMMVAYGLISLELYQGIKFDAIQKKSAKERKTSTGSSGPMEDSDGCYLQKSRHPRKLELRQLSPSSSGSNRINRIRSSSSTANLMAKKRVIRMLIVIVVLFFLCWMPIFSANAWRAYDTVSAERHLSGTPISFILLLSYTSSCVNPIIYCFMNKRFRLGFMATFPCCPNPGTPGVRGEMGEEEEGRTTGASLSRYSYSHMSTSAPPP
Briefly: Measurement of Binding Affinity for CCK-A Receptors. To be noted: inhibition of specific [3H]L-364,718 (0.2 nM) binding; guinea pig pancreas; 25° C., 2 hours; pH 6.5. On the set-up: species or system Hartley-strain guinea pig. As to the method:
Pancreases were removed from Hartley-strain guinea pigs, the pancreases were homogenized in 40 volumes of 10 mM PIPES buffer (pH 6.5, which hereinafter be abbreviated as "solvent") containing 1 mM EGTA, 30 mM MgCl2, 0.02% bacitracin, 0.02% soybean trypsin inhibitor and 0.3 M sucrose. The homogenate was filtrated through gauze and centrifuged at 50000×g for 10 minutes. Solvent was added to the pellet and recentrifuged as above. The final pellet thus obtained was homogenized in 40 volumes of solvent and used as the receptor preparation.
Binding assay was measured as follows. Fifty μl of [^3 H]L-364, 718 (at the final concentration of 0.2 nM) and 900 μl of the receptor preparation (50 μg protein/tube) were added to 50 μl of solvent, or L-364, 718 (1 μM) or a test compound. This mixture was incubated at 25° C. for 2 hours. After the reaction, the mixture was filtrated through Whatman GF/B filter presoaked in 0.1% BSA (bovine serum albumin). The filter was washed with 3 ml of ice-cold 10 mM PIPES buffer (pH 6.5) three times, immediately after the filtration. The filter was soaked in the ACS-II scintillation cocktail for one day and radioactivity was measured using a liquid scintillation counter. Non-specific binding was defined as the radioactivity in the presence of 1 μM L-364, 718. Specific binding was defined as the difference between total binding (used solvent without L-364, 718) and non-specific binding. lnhibitor dissociation constant (Ki) of each test compound was determined from the inhibition of specific [^3 H]L-364, 718 binding.

Where [4] appears, read: rat, acid output from 1 to 4 hours after administration, pentagastrin 15 μg/kg/hr.

On to `Cc1ccc2c(c1)N(CC(=O)c1ccccc1C)C(=O)C(NC(=O)Nc1cccc(C(=O)O)c1)CN2C(=O)C(C)(C)C` (racemic) [Example 13 (racemate), 3-[3-[1-(2-toluoylmethyl)-2-oxo-5-pivaloyl-8-methyl-1,3,4,5-tetrahydro-2H-1,5-benzodiazepin-3-yl]ureido]benzoic acid], for which the Ki in assay [1] was determined as 3.16 nM. Further, the inhibition in vivo at 3 mg/kg in assay [2] (setting [4]) came out at 80.9%.
For `Cc1ccccc1C(=O)CN1C(=O)C(NC(=O)Nc2cccc(C(=O)O)c2)CN(C(=O)C(C)(C)C)c2ccccc21` (single isomer, unassigned), the inhibition constant (Ki) in assay [1] was 1.42 nM. Besides, the inhibition in vivo at 10 mg/kg in assay [2] (Rattus norvegicus, 4 h) was 69.8%.
On to `Cc1ccc2c(c1)N(CC(=O)c1ccccc1C)C(=O)C(NC(=O)Nc1cccc(C(=O)O)c1)CN2C(=O)C(C)(C)C` (single isomer, unassigned; (+)) [Example 13 (+form), (+)-3-[3-[1-(2-toluoylmethyl)-2-oxo-5-pivaloyl-8-methyl-1,3,4,5-tetrahydro-2H-1,5-benzodiazepin-3-yl]ureido]benzoic acid], for which the Ki in assay [1] was determined as 1.16 nM. In assay [2] (setting [4]), this compound displayed an inhibition in vivo at 1 mg/kg of 81.5%.
Regarding `Cc1cccc(NC(=O)NC2CN(C(=O)C(C)(C)C)c3ccccc3N(CC(=O)c3ccccc3C)C2=O)c1` (centres unmarked) [Example 1, 1-[1-(2-toluoylmethyl)-2-oxo-5-pivaloyl-1,3,4,5-tetrahydro-2H-1,5-benzodiazepin-3-yl]-3-(3-methylphenyl)urea], the Ki in assay [1] stood at 6.47 nM. Also, the inhibition in vivo at 30 mg/kg in assay [2] (setting [4]) worked out at 59.4%.
For the compound `CC(C)(C)C(=O)CN1C(=O)C(NC(=O)Nc2cccc(C(=O)O)c2)CN(C(=O)C(C)(C)C)c2ccccc21` (centres unmarked) [Example 10, 3-[3-(1-tert-butylcarbonylmethyl-2-oxo-5-pivaloyl-1,3,4,5-tetrahydro-2H-1,5-benzodiazepin-3-yl)ureido]benzoic acid], the Ki in assay [1] was found to be 6.87 nM. In assay [2] (10 mg/kg, rat, acid output from 1 to 4 hours after administration, pentagastrin 15 μg/kg/hr), the inhibition in vivo at 10 mg/kg was found to be 67.1%.
With `Cc1cccc(NC(=O)NC2CN(C(=O)C3CCCCC3)c3ccccc3N(CC(=O)c3ccccc3C)C2=O)c1` (centres unmarked) [Example 14, 1-[1-(2-toluoylmethyl)-2-oxo-5-cyclohexylcarbonyl-1,3,4,5-tetrahydro-2H-1,5-benzodiazepin-3-yl]-3-(3-methylphenyl)urea], in assay [3], the affinity corresponds to a Ki of 13.2 nM.
Consider `Cc1cccc(NC(=O)NC2CN(C(=O)C3CCCC3)c3ccccc3N(CC(=O)c3ccccc3C)C2=O)c1` (centres unmarked) [Example 28, 1-[1-(2-toluoylmethyl)-2-oxo-5-cyclopentylcarbonyl-1,3,4,5-tetrahydro-2H-1,5-benzodiazepin-3-yl]-3-(3-methylphenyl)urea], for which affinity in assay [3] was put at a Ki of 14.3 nM.
For `CC(C)(C)OC(=O)CN1C(=O)C(NC(=O)Nc2cccc(C(=O)O)c2)CN(c2ccccc2)c2ccccc21` (centres unmarked) [Example 80, 3-[3-[1-tert-butoxycarbonylmethyl-2-oxo-5-phenyl-1,3,4,5-tetrahydro-2H-1,5-benzodiazepin-3-yl]ureido]benzoic acid], the inhibition constant (Ki) in assay [1] is 2.62 nM. The compound also displayed an inhibition in vivo at 3 mg/kg in assay [2] (setting [4]) of 45.4%.
With `Cc1ccc2c(c1)N(CC(=O)c1ccccc1C)C(=O)C(NC(=O)Nc1cccc(C(=O)O)c1)CN2C(=O)C(C)(C)CCl` (centres unmarked) [Example 94, 3-[3-[1-(2-toluoylmethyl)-2-oxo-5-(3-chloro-2,2-dimethylpropionyl)-8-methyl-1,3,4,5-tetrahydro-2H-1,5-benzodiazepin-3-yl]ureido]benzoic acid], in assay [1], the Ki worked out at 1.62 nM. The compound also registered an inhibition in vivo at 30 mg/kg in assay [2] (setting [4]) of 93.3%.
As to `Cc1ccc2c(c1)N(CC(=O)C(C)(C)C)C(=O)C(NC(=O)Nc1cccc(C(=O)O)c1)CN2c1ccccc1` (centres unmarked) [Example 95, 3-[3-(1-tert-butylcarbonylmethyl-2-oxo-5-phenyl-8-methyl-1,3,4,5-tetrahydro-2H-1,5-benzodiazepin-3-yl]ureido]benzoic acid], the Ki in assay [1] worked out at 2.26 nM. In addition, in assay [2] (setting [4]), the inhibition in vivo at 1 mg/kg came out at 49%.
Turning to `Cc1ccc2c(c1)N(CC(=O)c1ccco1)C(=O)C(NC(=O)Nc1cccc(C(=O)O)c1)CN2C(=O)C(C)(C)C` (centres unmarked) [Example 114, 3-[3-[1-(furan-2-yl)carbonylmethyl-2-oxo-5-pivaloyl-8-methyl-1,3,4,5-tetrahydro-2H-1,5-benzodiazepin-3-yl]ureido]benzoic acid], in assay [1], the Ki came to 9.43 nM. In assay [2] (setting [4]), this compound came in with an inhibition in vivo at 30 mg/kg of 89.7%.
As for `CC(C)(C)C(=O)CN1C(=O)C(NC(=O)Nc2cccc(C(=O)O)c2)CN(C2CCCCC2)c2ccccc21` (centres unmarked) [Example 121, 3-[3-(1-tert-butylcarbonylmethyl-2-oxo-5-cyclohexyl-1,3,4,5-tetrahydro-2H-1,5-benzodiazepin-3-yl)ureido]benzoic acid], in assay [1], the Ki is 1.2 nM. Further, the inhibition in vivo at 0.3 mg/kg in assay [2] (setting [4]) came to 47%.
On to `CC(C)(C)C(=O)CN1C(=O)[C@H](NC(=O)Nc2cccc(C(=O)O)c2)CN(C2CCCCC2)c2ccccc21` [Example 143, (R)-(-)-3-[3-(1-tert-butylcarbonylmethyl-2-oxo-5-cyclohexyl-1,3,4,5-tetrahydro-2H-1,5-benzodiazepin-3-yl)ureido]benzoic acid], for which, in assay [1], the Ki amounted to 0.63 nM. Also, in assay [2] (0.1 mg/kg, rat, acid output from 1 to 4 hours after administration, pentagastrin 15 μg/kg/hr), the inhibition in vivo at 0.1 mg/kg amounted to 54.6%.
`Cc1ccc(NC(=O)N[C@@H]2CN(C3CCCCC3)c3ccccc3N(CC(=O)C(C)(C)C)C2=O)cc1C(=O)O` [Example 166, (R)-(-)-2-methyl-5-[3-(1-tert-butylcarbonylmethyl-2-oxo-5-cyclohexyl-1,3,4,5-tetrahydro-2H-1,5-benzodiazepin-3-yl)ureido]benzoic acid]: the inhibition in vivo at 0.3 mg/kg in assay [2] (setting [4]) was 51.2%.
In the case of `CC(C)(C)C(=O)CN1C(=O)[C@H](NC(=O)Nc2cccc(C(=O)NS(C)(=O)=O)c2)CN(C2CCCCC2)c2ccccc21` [Example 168, (R)-(-)-1-(1-tert-butylcarbonylmethyl-2-oxo-5-cyclohexyl-1,3,4,5-tetrahydro-2H-1,5-benzodiazepin-3-yl)-3-(3-methylsulfonylaminocarbonylphenyl)urea], in assay [1], the Ki came to 0.21 nM. Besides, in assay [2] (setting [4]), the inhibition in vivo at 1 mg/kg worked out at 58.9%.
`CC(C)(C)C(=O)CN1C(=O)[C@H](NC(=O)Nc2cccc(SCC(=O)O)c2)CN(C2CCCCC2)c2ccccc21` [Example 169, (R)-(-)-3-[3-(1-tert-butylcarbonylmethyl-2-oxo-5-cyclohexyl-1,3,4,5-tetrahydro-2H-1,5-benzodiazepin-3-yl)ureido]phenylthioacetic acid]: the Ki in assay [1] came out at 0.1 nM. For the same compound, the inhibition in vivo at 1 mg/kg in assay [2] (setting [4]) is 75.2%.

The values above are taken from patent US6239131A, “1,5 Benzodiazepine derivatives” (Zeria Pharmaceutical Co., Ltd., priority 1996, dated 2001).
